Measured values as given in EP4471049A1 (Zealand Pharma A/S, priority 2023, dated 2024).
*1 amine or outer side, *2 acyl side, *3 side chain or, on linkers, in order; H or OH if unused. Where a SMILES comes first, the peptide text is derived from it. Bridges are numbered along the chain shown (N, C = ends). Where no end group is shown, it is not given here. [ ]: non-standard residue; d: D form. The star is where a group is joined. 4‑Aminomethyl‑phenylacetyl = 4-aminomethyl-phenylacetyl unit, its amine closes the lactam, O=C(Cc1ccc(CN[*:1])cc1)[*:2]; dGly‑CF3 = O=C([C@H](N[*:1])C(F)(F)F)[*:2]; 2Nal = N[C@@H](Cc1ccc2ccccc2c1)C(=O)O; AEF = NCCOc1ccc(C[C@H](N)C(=O)O)cc1; X1 = O=C(Cc1ccc(CN[*:1])cc1)[*:2]; 3Pal = N[C@@H](Cc1cccnc1)C(=O)O; αMeL = CC(C)C[C@](C)(N)C(=O)O; CH2COCH2 = O=C(C[*:1])C[*:2]; Pyrrolidide = C1CCN(*)C1; Dab = NCC[C@H](N)C(=O)O; βAla = NCCC(=O)O

Assays:
human IL-23R = target: T1, human IL-23R (Homo sapiens, UniProt Q5VWK5); test: biochemical; settings: for Emax: read-out: % displacement (hIL-23R binding)
T1 sequence (Q5VWK5 22-629): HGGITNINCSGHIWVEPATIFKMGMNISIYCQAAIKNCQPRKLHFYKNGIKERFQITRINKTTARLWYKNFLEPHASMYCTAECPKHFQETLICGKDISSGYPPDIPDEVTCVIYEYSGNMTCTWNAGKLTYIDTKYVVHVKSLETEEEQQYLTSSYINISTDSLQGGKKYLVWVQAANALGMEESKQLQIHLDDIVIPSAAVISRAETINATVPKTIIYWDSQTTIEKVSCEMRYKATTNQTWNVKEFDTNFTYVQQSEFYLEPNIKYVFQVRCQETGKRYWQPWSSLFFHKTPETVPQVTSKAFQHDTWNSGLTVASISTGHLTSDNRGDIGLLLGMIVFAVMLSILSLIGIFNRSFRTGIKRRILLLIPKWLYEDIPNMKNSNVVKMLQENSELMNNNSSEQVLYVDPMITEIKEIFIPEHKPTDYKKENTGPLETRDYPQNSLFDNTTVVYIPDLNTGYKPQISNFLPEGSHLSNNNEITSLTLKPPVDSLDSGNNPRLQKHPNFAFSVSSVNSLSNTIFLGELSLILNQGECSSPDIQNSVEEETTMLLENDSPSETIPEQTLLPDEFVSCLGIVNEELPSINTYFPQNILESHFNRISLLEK
Description: The compound binding affinity for IL-23R was estimated by the ability of compounds to displace a fluorophore-labelled reference compound from the human IL-23R. The assay principle relies on Bioluminescence Resonance Energy Transfer (BRET) between a fluorophore-labelled reference compound binding to the IL-23R part of a fusion protein consisting of the IL-23R fused to a Nanoluc luciferase enzyme (Nanoluc). The Nanoluc is placed in the N-terminus in close proximity to the binding domain of the ligand. Upon close proximity between the fluorophore of the fluorophore-labelled compound and the Nanoluc of the fusion protein, bioluminescence energy generated from conversion of a Nanoluc substrate, is transferred to the fluorophore resulting in an increase in BRET. In presence of an unlabelled compound, the unlabelled compound displaces the fluorophore-labelled peptide from its binding site resulting in a decrease in BRET. The concentration for which half of the fluorophore-labelled peptide is displaced by the unlabelled compound depends on the affinity of the compound for the IL-23R, and is termed the IC50 concentration.
The plasmid also contained a gene to confer resistance for the antibiotic hygromycin. A cell line stably expressing the Nluc-IL23R fusion protein was generated by transfection of HEK293 cells with the expression plasmid and selected with hygromycin for 3 weeks in Growth medium consisting of DMEM w/ Glutamax-I containing, 10% V/V FBS, 1% V/V P/S, 1 mM Sodium Pyruvate, and 1X NEAA, and 0.3 mg/mL hygromycin. The remaining cells were propagated and considered a stable expressing Nluc-IL23R fusion protein pool clone.
Cells expressing the Nluc-IL23R fusion protein were expanded in Growth medium and membranes prepared by homogenization of a cell pellet from 18 T175 flasks (4 °C in subsequent steps). The cell pellet was lysed Tris 10 mM, 7.5, 1 mM EDTA and protease inhibitors (Complete, Roche) and homogenized using a 15 mL glass-dounce by 50 strokes. The homogenate was spun at spin @1500 rpm for 10 min, the supernatant transferred to SV-34 tubes and spun at 40000g for 20 min at 4 °C to pellet the crude membranes. The supernatant was then removed, the pellet resuspended in 5 mL buffer containing 50 mM HEPES pH 7.4, 5 mM EGTA, and 5 mM MgCl2, and homogenized. Aliquots of the resuspended and homogenized membranes containing the Nluc-IL23R fusion protein were stored at -80 °C until use.
The plate was sealed with light impermeable plate seals, and incubated on an orbital shaker 400 rpm for 2 hours at room temperature. To determine the BRET ratio, the plate seal was removed and 25 µL of the Nanoluc substrate (Promega N1572) diluted 1:500 was added to each well and incubated for 1-2 minutes on an orbital shaker at 400 rpm. […] The BRET ratio was calculated as the fluorescence from the TAMRA/nanoluc bioluminescence.
Compound potency (IC50) and maximal displacement (% displacement) were estimated by computer-aided curve fitting using a 4-parameter logistic (4PL) non-linear model. […]
In this application, the inventors provide the data as IC50 values.

[1] = target: T2, human IL-23R endogenously expressed on DB cells (human, UniProt Q5VWK5 24-629); test: cell-based or functional assay
T2 sequence (looked up): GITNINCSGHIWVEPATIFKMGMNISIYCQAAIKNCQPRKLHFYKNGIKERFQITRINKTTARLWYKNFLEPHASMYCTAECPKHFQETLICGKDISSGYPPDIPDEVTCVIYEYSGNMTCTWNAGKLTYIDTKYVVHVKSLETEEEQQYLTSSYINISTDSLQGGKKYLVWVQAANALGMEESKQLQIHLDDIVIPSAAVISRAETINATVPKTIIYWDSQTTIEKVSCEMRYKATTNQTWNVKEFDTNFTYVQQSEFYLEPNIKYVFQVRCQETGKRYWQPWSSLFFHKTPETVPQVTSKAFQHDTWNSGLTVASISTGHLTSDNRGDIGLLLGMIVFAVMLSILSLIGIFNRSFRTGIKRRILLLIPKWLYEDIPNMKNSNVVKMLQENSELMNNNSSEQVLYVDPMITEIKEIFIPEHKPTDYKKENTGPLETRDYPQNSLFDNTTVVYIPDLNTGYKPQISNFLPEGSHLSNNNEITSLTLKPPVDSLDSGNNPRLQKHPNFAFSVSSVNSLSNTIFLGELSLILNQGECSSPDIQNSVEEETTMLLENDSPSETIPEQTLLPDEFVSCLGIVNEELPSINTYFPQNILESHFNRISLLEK

## CNC(=O)[C@H](Cc1cccnc1)NC(=O)[C@H](CCN)NC(=O)[C@@H]1CCC(=O)NCc2ccc(cc2)CC(=O)N[C@@H](C)C(=O)N[C@H]2CCC(=O)NCC[C@H](NC(=O)[C@H](CCC(N)=O)NC(=O)[C@H](Cc3c[nH]c4ccccc34)NC2=O)C(=O)N[C@@H](Cc2c[nH]c3c(F)cccc23)C(=O)N[C@@H](Cc2ccc3ccccc3c2)C(=O)NC(C)(C)C(=O)N1 [Compound 47, [4-Aminomethyl-phenylacetyl](1c)*AE(2c)WQ[Dab](2c)[7-F-Trp][2-Nal][Aib]E(1c)[Dab][3-(3-Pyridyl)-Ala]-[NHMe]]
Human IL-23R
  Emax: 103%

## CC(C)C[C@]1(C)NC(=O)[C@H](Cc2ccc3ccccc3c2)NC(=O)[C@H](Cc2ccc(OCCN)cc2)NC(=O)[C@@H]2CCNC(=O)CC[C@H](NC(=O)[C@H](CO)NC(=O)Cc3ccc(cc3)CNC(=O)CC[C@@H](C(=O)N[C@@H](CCN)C(N)=O)NC1=O)C(=O)N[C@@H](Cc1c[nH]c3ccccc13)C(=O)N[C@@H](CCC(=O)N1CCCC1)C(=O)N2 [Ref 146, [4-Aminomethyl-phenylacetyl](1c)*SE(2c)W[Q(pyrrolidin)][Dab](2c)[Y(2-aminoethoxy)][2-Nal][2-Me-Leu]E(1c)[Dab]-[NH2], reference compound] ([X1]SEWE(Pyrrolidide)[Dab][AEF][2Nal][αMeL]E[Dab]-NH2; lactam 3-6, N-10)
Human IL-23R
  % displacement (hIL-23R binding): 105%

## CNC(=O)[C@H](Cc1cccnc1)NC(=O)[C@H](CCN)NC(=O)[C@@H]1CCC(=O)NCc2ccc(cc2)CC(=O)N[C@@H](CO)C(=O)N[C@H]2CCC(=O)NCC[C@H](NC(=O)[C@H](Cc3ccccc3)NC(=O)[C@H](Cc3c[nH]c4ccccc34)NC2=O)C(=O)N[C@@H](Cc2ccc(OCCN)cc2)C(=O)N[C@@H](Cc2ccc3ccccc3c2)C(=O)N[C@@](C)(CC(C)C)C(=O)N1 [Compound 23, [4-Aminomethyl-phenylacetyl](1c)*SE(2c)WF[Dab](2c)[Y(2-aminoethoxy)][2-Nal][2-Me-Leu]E(1c)[Dab][3-(3-Pyridyl)-Ala]-[NHMe]] ([X1]SEWF[Dab][AEF][2Nal][αMeL]E[Dab][3Pal]-NHMe; lactam 3-6, N-10)
Human IL-23R
  % displacement (hIL-23R binding): 97%

## CC(C)C[C@]1(C)NC(=O)[C@H](Cc2ccc3ccccc3c2)NC(=O)[C@H](Cc2ccc(OCCN)cc2)NC(=O)[C@@H]2CSCC(=O)CSC[C@H](NC(=O)[C@H](CO)NC(=O)[C@H](Cc3cccnc3)NC(=O)CCNC(=O)CC[C@@H](C(=O)N[C@H](CCCNC(=N)N)C(N)=O)NC1=O)C(=O)N[C@@H](Cc1c[nH]c3ccccc13)C(=O)N[C@@H](CCC(N)=O)C(=O)N2 [Compound 1, [3-Aminopropanoyl](4c)*[3-(3-Pyridyl)-Ala]SC(2a)WQC(2a)[Y(2-aminoethoxy)][2-Nal][2-Me-Leu]E(4c)[{d}R]-[NH2]] ([βAla][3Pal]SCWQC[AEF][2Nal][αMeL]E[dR]-NH2; linker 4-7 via CH2COCH2; lactam N-11)
Human IL-23R
  % displacement (hIL-23R binding): 105%
  IC50: 5.4 nM

## CNC(=O)[C@H](Cc1cccnc1)NC(=O)[C@H](CCN)NC(=O)[C@@H]1CCC(=O)NCc2ccc(cc2)CC(=O)N[C@@H](C)C(=O)N[C@H]2CCC(=O)NCC[C@H](NC(=O)[C@H](CCC(N)=O)NC(=O)[C@H](Cc3c[nH]c4ccccc34)NC2=O)C(=O)N[C@@H](Cc2c[nH]c3ccccc23)CC(=O)N[C@@H](Cc2ccc3ccccc3c2)C(=O)NC(C)(C)C(=O)N1 [Compound 45, [4-Aminomethyl-phenylacetyl](1c)*AE(2c)WQ[Dab](2c)[beta-hTrp][2-Nal][Aib]E(1c)[Dab][3-(3-Pyridyl)-Ala]-[NHMe]]
Human IL-23R
  % displacement (hIL-23R binding): 104%
  IC50: 4.2 nM

## CNC(=O)[C@H](Cc1cccnc1)NC(=O)[C@H](CCN)NC(=O)[C@@H]1CCC(=O)NCc2ccc(cc2)CC(=O)N[C@@H](CO)C(=O)N[C@H]2CCC(=O)NCC[C@H](NC(=O)[C@H](C)NC(=O)[C@H](Cc3c[nH]c4ccccc34)NC2=O)C(=O)N[C@@H](Cc2ccc(OCCN)cc2)C(=O)N[C@@H](Cc2ccc3ccccc3c2)C(=O)N[C@@](C)(CC(C)C)C(=O)N1 [Compound 22, [4-Aminomethyl-phenylacetyl](1c)*SE(2c)WA[Dab](2c)[Y(2-aminoethoxy)][2-Nal][2-Me-Leu]E(1c)[Dab][3-(3-Pyridyl)-Ala]-[NHMe]] ([X1]SEWA[Dab][AEF][2Nal][αMeL]E[Dab][3Pal]-NHMe; lactam 3-6, N-10)
Human IL-23R
  Emax: 96%

B1: Ref 125 (peptide)
peptide: [4‑Aminomethyl‑phenylacetyl]SEWQ[Dab][AEF][2Nal][αMeL]E[Dab]-NH2
modifications: lactam (positions not given here); lactam 3-6; not fully specified (bridges); printed as [4-Aminomethyl-phenylacetyl](1c)*SE(2c)WQ[Dab](2c)[Y(2-aminoethoxy)][2-Nal][2-Me-Leu]E(1c)[Dab]-[NH2]
[1]
  hIL-23 (pSTAT3) antagonist % inhibition: 98%
  hIL-23 (pSTAT3) antagonist IC50: 21 nM

## H-DCSCWQCWWLCR-NH2 (bridge 4-7, 2-11; not fully specified (bridges)) [I3 (isomer 3)]
[1]
  hIL-23 (pSTAT3) antagonist % inhibition: 100%

## [4‑Aminomethyl‑phenylacetyl]SEWQ[Dab][AEF][2Nal][αMeL]E[dGly‑CF3][3Pal]-NH2 (lactam (positions not given here); lactam 3-6; not fully specified (bridges)) [Compound 16]
[1]
  hIL-23 (pSTAT3) antagonist % inhibition: 97%
  hIL-23 (pSTAT3) antagonist IC50: 1.4 nM
